Test system: human patients suffering from relapsing multiple sclerosis (RMS)
Test: Phase II RMS study: brain MRI (Gd+ T1 lesions, T2 lesions)
Type: in vivo
Design: key to Gd+ T1 lesion rate (subject level), Median / Gd+ T1 Lesion rate, adjusted (negative binomial model): number of Gd+ T1 lesions per scan
Details: for New or enlarging T2 lesion rate (subject level), Mean ± SD: Weeks 12-24; for Difference in LS means of CFB in cube root of volume of T2 lesions vs placebo: week 24, MMRM
Procedure: The assessing Investigator and central MRI reader were treatment blinded.
The protocol specified that subjects self-administered the IMP at a set time each day (every 12 hours ±2 hours). Subjects were to take their daily dose more than 1 hour prior to a meal or snack and more than 2 hours after a meal or snack. Clear fluids were allowed at any time. On trial visit days, the IMP was to be administered during the trial visit after the scheduled trial visit procedures (other than post-treatment PK/PD sampling) are completed.
Stratification occurred by region (USA or Western Europe, Eastern Europe and BTKO capable, Eastern Europe and not BTKO capable, and RoW). For the first 7 days, Tecfidera was administered orally at 120 mg twice daily. Following this and for the duration of treatment, Tecfidera was administered orally at 240 mg twice daily.
The protocol specified that MRI scans were to be performed at Screening, at 4-week intervals from Week 12 to 24, and at the End of Treatment Visit at Week 48 (including for subjects receiving Tecfidera who choose to enter the OLE Period). […] If a subject discontinued the study more than 4 weeks after his or her most recent MRI, the protocol specified that an MRI may be obtained at the 4-week Safety Follow-up Visit. The Screening MRI scan was to be acquired before randomization and dosing to allow for the readouts to be read by the central MRI reader (approximately 7 days).
Gadolinium was used to enhance T1-weighted lesions and to optimize clarity and accuracy of reporting. As gadolinium is excreted renally, subjects with acute renal insufficiency (eGFR <45 mL/min/1.73 m^2) will be excluded from the trial.
The protocol specified that brain MRI scans were performed according to a standardized imaging protocol before and after the administration of single-dose gadolinium. Images were assessed and reported by an independent, blinded, centralized MRI reading service, provided by NeuroRx Research. The assessment was performed in the absence of clinical information. Further details, including the scans required and the optimal MRI workflow, were provided in a separate Imaging Manual provided to each trial site by NeuroRx Research. All MRI images were reviewed and reported locally by a radiologist for safety. The local report was to contain only non-MS pathology and was to be provided to the Treating Investigator.
The primary endpoint was the total number of gadolinium-enhancing T1 lesions at Week 12, 16, 20, and 24. The primary analysis was a comparison of each evobrutinib dose arm versus placebo based on this endpoint, with a supportive test for dose-response. Secondary Endpoints
Other covariates were permitted to be considered. […] Descriptive statistics for the total number of Gd+ T1 lesions, at Week 12, 16, 20, and 24, are provided for each treatment group.
Estimation of mean per-scan number of Gd+ T1 lesions at Weeks 12, 16, 20, and 24, for each treatment group, was based on the NB model. In the analysis of each secondary endpoint, other covariates were permitted to be included in the model.
Primary and secondary efficacy endpoints were analysed based on the modified intention-to-treat (mITT) analysis set, consisting of all randomized patients with at least one available baseline and one post-baseline MRI assessment. […] For each endpoint, rate ratio (RR; null-hypothesis RR=1.0) adjusted for baseline disease activity was reported together with associated 95% CI and p-value. The T2 lesion endpoint was analysed similarly. Dose-response relationships between evobrutinib treatment dose and primary and key secondary endpoints were assessed for linear and monotonic trend. The analysis of CFB in cube root of volume of T2 lesions at Week 24 was based on a mixed-effect model for repeated measures, with fixed effects for treatment, week of visit, and treatment-by-week interaction, random effect for subject, and adjustment for baseline cube root of lesion volume. CFB in SF-36 score at Week 24 was analysed similarly. […]

[1] = 25 mg QD, listed as evobrutinib
[2] = 75 mg BID, listed as evobrutinib

C=CC(=O)N1CCC(CNc2ncnc(N)c2-c2ccc(Oc3ccccc3)cc2)CC1 [Evobrutinib, 1-(4-(((6-amino-5-(4-phenoxyphenyl)pyrimidin-4-yl)amino)methyl)piperidin-1-yl)prop-2-en-1-one]
Change in volume of T2 lesions from baseline to week 24, Mean ± SD (25 mg QD): 0.93 ± 1.85 cc
Change in volume of T2 lesions from baseline to week 24, Median (25 mg QD): 0.05 cc
Gd+ T1 Lesion rate, adjusted (negative binomial model) (25 mg QD): 1.09
Gd+ T1 lesion rate (subject level), Median (25 mg QD): 0.25
Gd+ T1 lesion rate (subject level; count per scan, weeks 12-24), Mean ± SD (25 mg QD): 1.31 ± 3.13
Total Number of New or Enlarging T2 Lesions at Week 24, Mean ± SD (25 mg QD): 6.52 ± 11.57
Total number of Gd+ T1 lesions at Weeks 12, 16, 20, 24, Mean ± SD (25 mg QD): 5.23 ± 12.52
Total number of Gd+ T1 lesions at Weeks 12, 16, 20, 24, Median (min-max) (25 mg QD): 1 (0-76)
New or enlarging T2 lesion rate (subject level), Mean ± SD (25 mg QD): 2.08 ± 4.19
Difference in LS means of CFB in cube root of volume of T2 lesions vs placebo (25 mg QD): 0.05 cm
Change in volume of T2 lesions from baseline to week 24, Median [1]: increased
Gd+ T1 lesion rate (subject level; count per scan, weeks 12-24), Mean ± SD [1]: 1.31±3.13
Change in volume of T2 lesions from baseline to week 24, Mean ± SD (75 mg BID): 0.06 ± 0.50 cc
Change in volume of T2 lesions from baseline to week 24, Median (75 mg BID): −0.02 cc
Gd+ T1 Lesion rate, adjusted (negative binomial model) (75 mg BID): 0.34
Gd+ T1 lesion rate (subject level), Median (75 mg BID): 0.0
Gd+ T1 lesion rate (subject level; count per scan, weeks 12-24), Mean ± SD (75 mg BID): 0.35 ± 0.96
Total Number of New or Enlarging T2 Lesions at Week 24, Mean ± SD (75 mg BID): 2.26 ± 4.72
Total number of Gd+ T1 lesions at Weeks 12, 16, 20, 24, Mean ± SD (75 mg BID): 1.39 ± 3.85
Total number of Gd+ T1 lesions at Weeks 12, 16, 20, 24, Median (min-max) (75 mg BID): 0 (0-25)
New or enlarging T2 lesion rate (subject level), Mean ± SD (75 mg BID): 0.73 ± 1.57
New or enlarging T2 lesion rate (subject level), Mean ± SD [2]: 0.73±1.57
Difference in LS means of CFB in cube root of volume of T2 lesions vs placebo (75 mg BID): −0.35 cm
Gd+ T1 lesion rate (subject level; count per scan, weeks 12-24), Mean ± SD [2]: 0.35±0.96
Change in volume of T2 lesions from baseline to week 24, Mean ± SD (75 mg QD): 0.01 ± 0.57 cc
Change in volume of T2 lesions from baseline to week 24, Median (75 mg QD): −0.01 cc
Gd+ T1 Lesion rate, adjusted (negative binomial model) (75 mg QD): 0.27
Gd+ T1 lesion rate (subject level), Median (75 mg QD): 0.0
Gd+ T1 lesion rate (subject level; count per scan, weeks 12-24), Mean ± SD (75 mg QD): 0.42 ± 1.17
Total Number of New or Enlarging T2 Lesions at Week 24, Mean ± SD (75 mg QD): 3.57 ± 10.82
Total number of Gd+ T1 lesions at Weeks 12, 16, 20, 24, Mean ± SD (75 mg QD): 1.69 ± 4.69
Total number of Gd+ T1 lesions at Weeks 12, 16, 20, 24, Median (min-max) (75 mg QD): 0 (0-27)
Total number of Gd+ T1 lesions versus placebo (75 mg QD and 75 mg BID, Weeks 12, 16, 20 and 24): significantly reduced Gd+ T1 lesions versus placebo
New or enlarging T2 lesion rate (subject level), Mean ± SD (75 mg QD): 0.89 ± 2.71
Difference in LS means of CFB in cube root of volume of T2 lesions vs placebo (75 mg QD): −0.35 cm
Gd+ T1 lesion rate (subject level; count per scan, weeks 12-24), Mean ± SD (75 mg QD, listed as evobrutinib): 0.42±1.17
Total Gd+ T1 lesions over 4 scans in an outlier patient (one patient, 25 mg QD): 76
Dose response of Gd+ T1 lesion count (weeks 12-24, p<0.01): significant dose response was observed
